Reference: paper PMC3119665, “A New Drug Design Targeting the Adenosinergic System for Huntington's Disease” (PLoS ONE, 2011)

Columns and labels:
[1] = tested on: Thyroid Hormone; test: Radioligand binding panel (Table S1); set-up: species or system rat; details: 10 μM T1-11, n 2
[2] = tested on: Imidazoline I2, Central; test: Radioligand binding panel (Table S1); set-up: species or system rat; details: 10 μM T1-11, n 2
[3] = target: T1, Melanocortin MC1 (Homo sapiens, UniProt Q01726); test: Radioligand binding panel (Table S1); details: 10 μM T1-11, n 2
T1 construct: purchased MDS Pharma Services Taiwan

[4] = target: T2, Erythropoietin EPOR (Homo sapiens, UniProt P19235); test: Radioligand binding panel (Table S1); details: 10 μM T1-11, n 2
T2 construct: purchased MDS Pharma Services Taiwan
T2 sequence (P19235 25-508): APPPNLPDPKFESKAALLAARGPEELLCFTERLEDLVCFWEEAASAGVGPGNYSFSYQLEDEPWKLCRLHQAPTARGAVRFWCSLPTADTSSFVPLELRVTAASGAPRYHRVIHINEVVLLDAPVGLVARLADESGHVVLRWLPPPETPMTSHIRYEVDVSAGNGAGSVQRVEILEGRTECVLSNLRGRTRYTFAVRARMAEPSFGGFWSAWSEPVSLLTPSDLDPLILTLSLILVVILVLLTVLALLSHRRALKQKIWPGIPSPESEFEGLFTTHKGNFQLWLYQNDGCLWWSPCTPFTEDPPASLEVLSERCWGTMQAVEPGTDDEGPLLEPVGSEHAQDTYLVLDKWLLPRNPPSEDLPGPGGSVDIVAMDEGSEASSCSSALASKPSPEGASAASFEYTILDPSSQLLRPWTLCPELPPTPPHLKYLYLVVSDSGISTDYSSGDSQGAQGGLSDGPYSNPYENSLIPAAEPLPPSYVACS

[5] = tested on: Glutamate, AMPA; test: Radioligand binding panel (Table S1); set-up: species or system rat; details: 10 μM T1-11, n 2
[6] = tested on: Calcium Channel L-Type, Dihydropyridine; test: Radioligand binding panel (Table S1); set-up: species or system rat; details: 10 μM T1-11, n 2
[7] = tested on: GABAA, Chloride Channel, TBOB; test: Radioligand binding panel (Table S1); set-up: species or system rat; details: 10 μM T1-11, n 2
[8] = target: T3, Serotonin (5-Hydroxytryptamine) 5-HT2B (Homo sapiens, UniProt P41595); test: Radioligand binding panel (Table S1); details: 10 μM T1-11, n 2
T3 construct: purchased MDS Pharma Services Taiwan

[9] = target: T4, Lipoxygenase 15-LO (Oryctolagus cuniculus, UniProt P12530); test: Radioligand binding panel (Table S1); set-up: species or system rabbit; details: 10 μM T1-11, n 2
T4 construct: purchased MDS Pharma Services Taiwan
T4 sequence (P12530 whole entry): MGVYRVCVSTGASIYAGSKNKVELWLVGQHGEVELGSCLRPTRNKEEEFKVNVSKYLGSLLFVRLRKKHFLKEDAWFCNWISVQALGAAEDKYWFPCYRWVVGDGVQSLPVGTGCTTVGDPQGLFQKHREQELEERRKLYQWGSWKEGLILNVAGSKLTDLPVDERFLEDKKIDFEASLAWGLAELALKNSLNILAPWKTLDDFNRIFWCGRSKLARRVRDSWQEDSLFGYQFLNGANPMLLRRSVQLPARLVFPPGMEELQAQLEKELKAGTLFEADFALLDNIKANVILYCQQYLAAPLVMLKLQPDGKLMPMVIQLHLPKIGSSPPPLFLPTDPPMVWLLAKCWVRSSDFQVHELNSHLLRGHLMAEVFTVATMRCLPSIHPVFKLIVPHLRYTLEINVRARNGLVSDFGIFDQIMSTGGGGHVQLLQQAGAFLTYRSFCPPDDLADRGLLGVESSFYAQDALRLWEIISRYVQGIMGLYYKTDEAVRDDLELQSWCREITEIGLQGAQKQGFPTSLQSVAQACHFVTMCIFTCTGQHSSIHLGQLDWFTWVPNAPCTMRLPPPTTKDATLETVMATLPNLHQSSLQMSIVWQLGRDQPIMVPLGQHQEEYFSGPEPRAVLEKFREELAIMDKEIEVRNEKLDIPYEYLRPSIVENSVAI

[10] = target: T5, Endothelin ETA (Homo sapiens, UniProt P25101); test: Radioligand binding panel (Table S1); details: 10 μM T1-11, n 2
T5 construct: purchased MDS Pharma Services Taiwan
T5 sequence (P25101 21-427): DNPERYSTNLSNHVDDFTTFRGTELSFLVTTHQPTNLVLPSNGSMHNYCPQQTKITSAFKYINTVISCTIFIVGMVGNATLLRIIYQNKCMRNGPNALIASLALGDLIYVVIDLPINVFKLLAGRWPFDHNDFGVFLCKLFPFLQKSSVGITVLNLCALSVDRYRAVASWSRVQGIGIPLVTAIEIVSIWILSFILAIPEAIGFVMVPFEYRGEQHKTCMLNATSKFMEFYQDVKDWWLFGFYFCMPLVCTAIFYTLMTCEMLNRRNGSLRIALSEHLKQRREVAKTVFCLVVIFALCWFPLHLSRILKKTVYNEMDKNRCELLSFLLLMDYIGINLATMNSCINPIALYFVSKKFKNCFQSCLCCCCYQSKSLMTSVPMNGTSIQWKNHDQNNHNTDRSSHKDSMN

[11] = target: T6, Interleukin IL-2 (Mus musculus, UniProt P01590+P16297+P34902); test: Radioligand binding panel (Table S1); details: 10 μM T1-11, n 2
T6 construct: purchased MDS Pharma Services Taiwan

[12] = target: T7, Opiate δ (OP1, DOP) (Homo sapiens, UniProt P41143); test: Radioligand binding panel (Table S1); details: 10 μM T1-11, n 2
T7 construct: purchased MDS Pharma Services Taiwan

[13] = tested on: GABAA, Agonist Site; test: Radioligand binding panel (Table S1); set-up: species or system rat; details: 10 μM T1-11, n 2
[14] = target: T8, Corticotropin Releasing Factor, CRF1 (Homo sapiens, UniProt P34998); test: Radioligand binding panel (Table S1); details: 10 μM T1-11, n 2
T8 construct: purchased MDS Pharma Services Taiwan
T8 sequence (P34998 24-415): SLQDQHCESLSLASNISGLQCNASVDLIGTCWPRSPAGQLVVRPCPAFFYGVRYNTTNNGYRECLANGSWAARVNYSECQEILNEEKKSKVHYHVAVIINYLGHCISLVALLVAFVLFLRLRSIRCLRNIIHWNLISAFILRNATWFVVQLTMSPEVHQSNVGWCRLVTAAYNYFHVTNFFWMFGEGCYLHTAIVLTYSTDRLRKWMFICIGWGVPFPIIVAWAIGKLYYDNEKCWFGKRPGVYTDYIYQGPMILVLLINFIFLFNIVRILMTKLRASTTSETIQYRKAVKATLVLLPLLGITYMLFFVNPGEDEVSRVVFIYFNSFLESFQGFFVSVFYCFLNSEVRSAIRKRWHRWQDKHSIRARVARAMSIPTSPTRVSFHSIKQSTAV

[15] = target: T9, G Protein-Coupled Receptor, GPR103 (Homo sapiens, UniProt Q96P65); test: Radioligand binding panel (Table S1); details: 10 μM T1-11, n 2
T9 construct: purchased MDS Pharma Services Taiwan

[16] = target: T10, Histamine H1 (Homo sapiens, UniProt P35367); test: Radioligand binding panel (Table S1); details: 10 μM T1-11, n 2
T10 construct: purchased MDS Pharma Services Taiwan
T10 sequence (P35367 whole entry): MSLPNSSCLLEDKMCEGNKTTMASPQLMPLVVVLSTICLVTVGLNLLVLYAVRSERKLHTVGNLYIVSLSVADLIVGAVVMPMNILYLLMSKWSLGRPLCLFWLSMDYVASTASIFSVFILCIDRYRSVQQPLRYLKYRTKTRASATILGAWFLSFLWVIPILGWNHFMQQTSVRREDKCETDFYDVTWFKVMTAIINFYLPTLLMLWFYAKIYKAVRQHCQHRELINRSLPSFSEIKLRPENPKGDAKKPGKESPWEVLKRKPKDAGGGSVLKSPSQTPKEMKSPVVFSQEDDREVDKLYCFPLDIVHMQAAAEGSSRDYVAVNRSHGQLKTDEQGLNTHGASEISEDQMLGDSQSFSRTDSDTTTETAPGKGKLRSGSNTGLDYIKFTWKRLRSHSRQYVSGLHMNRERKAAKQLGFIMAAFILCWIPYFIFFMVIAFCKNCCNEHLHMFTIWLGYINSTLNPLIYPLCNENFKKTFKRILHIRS

[17] = target: T11, Lipoxygenase 5-LO (Homo sapiens, UniProt P09917); test: Radioligand binding panel (Table S1); details: 10 μM T1-11, n 2
T11 construct: purchased MDS Pharma Services Taiwan

[18] = target: T12, Opiate μ (OP3, MOP) (Homo sapiens, UniProt P35372); test: Radioligand binding panel (Table S1); details: 10 μM T1-11, n 2
T12 construct: purchased MDS Pharma Services Taiwan

[19] = tested on: PC12 cells; test: MTT metabolism assay, serum-deprived PC12 cells; assay type: cell-based, rat; details: 24 h
Method: Survival was assessed by the 3-(4,5-dimethylthiazol-2-yl)-2,5-diphenyltetrazolium bromide (MTT) metabolism assay as described elsewhere, [65]. In brief, cells grown on 150-mm plates were washed three times with PBS and resuspended in DMEM. Suspended cells (1×10^4 cells) were plated on 96-well plates and treated with or without the indicated reagent. After incubation for 24 h, MTT (0.5 mg/ml) was added to the medium and incubated for 3 h. After discarding the medium, DMSO (100 µl) was then applied to the well to dissolve the formazan crystals derived from the mitochondrial cleavage of the tetrazolium ring by live cells. The absorbance at 570/630 nm in each well was measured on a micro-enzyme-linked immunosorbent assay reader.

[20] = tested on: Serotonin (5-Hydroxytryptamine) 5-HT1, Non-Selective; test: Radioligand binding panel (Table S1); set-up: species or system rat; details: 10 μM T1-11, n 2
[21] = target: T13, Orphanin ORL1 (Homo sapiens, UniProt P41146); test: Radioligand binding panel (Table S1); details: 10 μM T1-11, n 2
T13 construct: purchased MDS Pharma Services Taiwan

[22] = target: T14, Tachykinin NK2 (Homo sapiens, UniProt P21452); test: Radioligand binding panel (Table S1); details: 10 μM T1-11, n 2
T14 construct: purchased MDS Pharma Services Taiwan

[23] = target: T15, Histamine H4 (Homo sapiens, UniProt Q9H3N8); test: Radioligand binding panel (Table S1); details: 10 μM T1-11, n 2
T15 construct: purchased MDS Pharma Services Taiwan
T15 sequence (Q9H3N8 whole entry): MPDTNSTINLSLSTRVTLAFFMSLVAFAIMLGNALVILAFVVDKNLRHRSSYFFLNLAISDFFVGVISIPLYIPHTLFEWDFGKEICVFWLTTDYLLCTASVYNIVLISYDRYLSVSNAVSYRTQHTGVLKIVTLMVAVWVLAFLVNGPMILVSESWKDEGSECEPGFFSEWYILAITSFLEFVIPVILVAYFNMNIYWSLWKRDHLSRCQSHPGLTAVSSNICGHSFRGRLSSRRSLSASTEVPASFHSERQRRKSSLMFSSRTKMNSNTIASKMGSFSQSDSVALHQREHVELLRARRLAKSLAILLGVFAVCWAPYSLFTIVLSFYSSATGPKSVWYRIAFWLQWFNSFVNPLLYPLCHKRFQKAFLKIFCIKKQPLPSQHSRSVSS

[24] = target: T16, Prostanoid, Thromboxane A2 (TP) (Homo sapiens, UniProt P21731); test: Radioligand binding panel (Table S1); details: 10 μM T1-11, n 2
T16 construct: purchased MDS Pharma Services Taiwan
T16 sequence (P21731 whole entry): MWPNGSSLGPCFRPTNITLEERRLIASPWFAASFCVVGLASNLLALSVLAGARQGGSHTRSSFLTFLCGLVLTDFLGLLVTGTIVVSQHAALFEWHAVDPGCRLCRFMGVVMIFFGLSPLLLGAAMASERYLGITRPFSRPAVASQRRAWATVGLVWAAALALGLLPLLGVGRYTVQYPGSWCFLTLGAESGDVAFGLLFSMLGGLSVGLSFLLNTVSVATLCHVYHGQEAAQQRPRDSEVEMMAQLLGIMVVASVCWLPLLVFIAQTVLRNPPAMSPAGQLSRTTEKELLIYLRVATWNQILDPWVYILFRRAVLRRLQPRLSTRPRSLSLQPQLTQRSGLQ

[25] = tested on: Phosphodiesterase PDE4; test: Radioligand binding panel (Table S1); set-up: species or system human; details: 10 μM T1-11, n 2
[26] = tested on: Androgen (Testosterone); test: Radioligand binding panel (Table S1); set-up: species or system human; details: 10 μM T1-11, n 2
[27] = target: T17, Neuropeptide Y Y2 (Homo sapiens, UniProt P49146); test: Radioligand binding panel (Table S1); details: 10 μM T1-11, n 2
T17 construct: purchased MDS Pharma Services Taiwan

[28] = target: T18, Bradykinin B1 (Homo sapiens, UniProt P46663); test: Radioligand binding panel (Table S1); details: 10 μM T1-11, n 2
T18 construct: purchased MDS Pharma Services Taiwan
T18 sequence (P46663 whole entry): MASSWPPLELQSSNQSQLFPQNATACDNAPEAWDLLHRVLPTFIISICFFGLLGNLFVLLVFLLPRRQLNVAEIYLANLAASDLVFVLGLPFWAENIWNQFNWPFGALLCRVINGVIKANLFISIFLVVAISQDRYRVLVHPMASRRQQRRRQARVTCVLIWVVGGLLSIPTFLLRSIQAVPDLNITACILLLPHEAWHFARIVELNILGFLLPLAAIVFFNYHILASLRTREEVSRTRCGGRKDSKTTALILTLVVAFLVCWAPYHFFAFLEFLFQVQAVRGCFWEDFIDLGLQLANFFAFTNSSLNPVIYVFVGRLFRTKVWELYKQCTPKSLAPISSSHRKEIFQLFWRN

[29] = tested on: Muscarinic, Oxotremorine-M; test: Radioligand binding panel (Table S1); set-up: species or system rat; details: 10 μM T1-11, n 2
[30] = target: T19, Chemokine CX3CR1 (Homo sapiens, UniProt P49238); test: Radioligand binding panel (Table S1); details: 10 μM T1-11, n 2
T19 construct: purchased MDS Pharma Services Taiwan

[31] = target: T20, Neuropeptide Y Y1 (Homo sapiens, UniProt P25929); test: Radioligand binding panel (Table S1); details: 10 μM T1-11, n 2
T20 construct: purchased MDS Pharma Services Taiwan
T20 sequence (P25929 whole entry): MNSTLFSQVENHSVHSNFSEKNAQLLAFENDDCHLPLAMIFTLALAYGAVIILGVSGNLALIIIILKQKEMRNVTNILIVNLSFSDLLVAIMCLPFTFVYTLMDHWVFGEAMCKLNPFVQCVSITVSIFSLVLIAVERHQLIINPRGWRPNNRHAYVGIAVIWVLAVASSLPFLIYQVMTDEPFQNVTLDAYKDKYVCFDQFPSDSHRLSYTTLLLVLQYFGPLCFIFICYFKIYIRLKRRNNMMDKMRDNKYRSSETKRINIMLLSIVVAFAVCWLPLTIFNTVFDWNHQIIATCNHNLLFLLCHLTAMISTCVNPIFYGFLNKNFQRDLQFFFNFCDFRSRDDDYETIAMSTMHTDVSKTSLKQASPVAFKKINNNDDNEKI

[32] = target: T21, Adrenergic β 1 (Homo sapiens, UniProt P08588); test: Radioligand binding panel (Table S1); details: 10 μM T1-11, n 2
T21 construct: purchased MDS Pharma Services Taiwan
T21 sequence (P08588 whole entry): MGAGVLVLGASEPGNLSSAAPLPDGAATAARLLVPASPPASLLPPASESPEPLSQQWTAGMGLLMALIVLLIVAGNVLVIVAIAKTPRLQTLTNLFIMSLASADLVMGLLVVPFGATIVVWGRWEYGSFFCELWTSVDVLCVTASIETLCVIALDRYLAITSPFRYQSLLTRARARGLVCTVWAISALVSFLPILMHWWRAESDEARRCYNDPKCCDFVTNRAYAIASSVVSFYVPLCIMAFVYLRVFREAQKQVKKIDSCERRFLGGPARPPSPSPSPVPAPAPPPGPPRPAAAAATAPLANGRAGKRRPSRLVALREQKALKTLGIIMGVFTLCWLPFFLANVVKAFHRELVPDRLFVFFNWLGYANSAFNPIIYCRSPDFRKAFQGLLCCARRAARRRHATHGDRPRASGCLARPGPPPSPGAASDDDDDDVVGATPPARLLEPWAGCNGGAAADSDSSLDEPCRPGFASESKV

[33] = target: T22, Vasopressin V1B (Homo sapiens, UniProt P47901); test: Radioligand binding panel (Table S1); details: 10 μM T1-11, n 2
T22 construct: purchased MDS Pharma Services Taiwan
T22 sequence (P47901 whole entry): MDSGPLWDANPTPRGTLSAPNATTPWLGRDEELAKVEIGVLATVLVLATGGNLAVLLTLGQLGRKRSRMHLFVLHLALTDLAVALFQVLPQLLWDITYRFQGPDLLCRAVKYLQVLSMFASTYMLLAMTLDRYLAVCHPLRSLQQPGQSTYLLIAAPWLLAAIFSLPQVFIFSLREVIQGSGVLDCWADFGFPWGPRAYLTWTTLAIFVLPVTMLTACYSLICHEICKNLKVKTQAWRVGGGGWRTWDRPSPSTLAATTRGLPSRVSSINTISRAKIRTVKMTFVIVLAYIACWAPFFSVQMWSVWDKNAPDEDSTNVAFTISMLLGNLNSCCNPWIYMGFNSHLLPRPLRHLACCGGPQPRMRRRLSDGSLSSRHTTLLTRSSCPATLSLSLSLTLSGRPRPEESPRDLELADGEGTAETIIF

[34] = tested on: Glutamate, NMDA, Agonism; test: Radioligand binding panel (Table S1); set-up: species or system rat; details: 10 μM T1-11, n 2
[35] = target: T23, Phosphodiesterase PDE10A1 (Homo sapiens, UniProt Q9Y233); test: Radioligand binding panel (Table S1); details: 10 μM T1-11, n 2
T23 construct: purchased MDS Pharma Services Taiwan

[36] = tested on: Gabapentin; test: Radioligand binding panel (Table S1); set-up: species or system rat; details: 10 μM T1-11, n 2
[37] = tested on: Adrenergic β, Non-Selective; test: Radioligand binding panel (Table S1); set-up: species or system rat; details: 10 μM T1-11, n 2
[38] = target: T24, Benzodiazepine, Peripheral (Rattus norvegicus, UniProt P16257); test: Radioligand binding panel (Table S1); details: 10 μM T1-11, n 2
T24 construct: purchased MDS Pharma Services Taiwan

OC[C@H]1O[C@@H](n2cnc3c(NCc4ccc(O)cc4)ncnc32)[C@H](O)[C@@H]1O [T1-11, N ^6-(4-hydroxybenzyl)adenine riboside]
% Inhibition [1]: -9% | % Inhibition [2]: 3% | inhibition at 10 µM [3]: 3% | inhibition at 10 µM [4]: 3% | % Inhibition [5]: -9% | % Inhibition [6]: -4% | % Inhibition [7]: -3% | inhibition at 10 µM [8]: 5% | inhibition at 10 µM [9]: 14% | inhibition at 10 µM [10]: 3% | inhibition at 10 µM [11]: 0% | inhibition at 10 µM [12]: 19% | % Inhibition [13]: 4% | inhibition at 10 µM [14]: 1% | inhibition at 10 µM [15]: 2% | inhibition at 10 µM [16]: 1% | inhibition at 10 µM [17]: 25% | inhibition at 10 µM [18]: 5% | Protection against serum withdrawal-induced cell death (MTT) [19]: protected against serum withdrawal-induced cell death in a dose-dependent manner | % Inhibition [20]: 10% | inhibition at 10 µM [21]: 10% | inhibition at 10 µM [22]: 3% | inhibition at 10 µM [23]: 8% | inhibition at 10 µM [24]: 1% | % Inhibition [25]: 0% | % Inhibition [26]: 3% | inhibition at 10 µM [27]: 4% | inhibition at 10 µM [28]: -8% | % Inhibition [29]: -7% | inhibition at 10 µM [30]: -1% | inhibition at 10 µM [31]: 6% | inhibition at 10 µM [32]: 7% | inhibition at 10 µM [33]: -18% | % Inhibition [34]: 10% | inhibition at 10 µM [35]: 1% | % Inhibition [36]: 8% | % Inhibition [37]: 10% | inhibition at 10 µM [38]: 3%
